Measured values taken from article PMC140036 (BMC Pharmacology, 2003).
Where two headings read alike, the source gives them in different places.

Key:
[1] = biological target: T1, mouse μ opioid receptor (Mus musculus, UniProt P42866); experiment: cell-based; details: for Emax: HEK293, read-out: Max Inhibition
[2] = biological target: T1, mouse μ opioid receptor; experiment: biochemical; format: binding

T1 sequence (P42866 whole entry): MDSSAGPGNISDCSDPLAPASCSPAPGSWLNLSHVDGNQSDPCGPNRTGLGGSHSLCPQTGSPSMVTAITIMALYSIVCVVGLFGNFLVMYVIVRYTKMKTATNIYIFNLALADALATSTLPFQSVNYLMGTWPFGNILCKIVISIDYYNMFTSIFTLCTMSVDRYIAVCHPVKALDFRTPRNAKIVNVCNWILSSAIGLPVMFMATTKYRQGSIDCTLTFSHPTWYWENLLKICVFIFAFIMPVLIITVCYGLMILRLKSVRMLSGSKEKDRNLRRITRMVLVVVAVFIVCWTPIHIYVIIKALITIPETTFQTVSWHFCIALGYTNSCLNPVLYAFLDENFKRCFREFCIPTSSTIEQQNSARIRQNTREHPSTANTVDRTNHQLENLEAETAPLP

Row | Compound | IC50 [1] [nM] | Emax [1] [%] | Max Inhibition [1] | IC50 ([1]; read-out: IC50 ± SEM) [nM] | Ki [2] [nM]
1 | Oc1ccc2c(c1)[C@@]13CCCC[C@@]1(O)[C@@H](C2)N(CC1CCC1)CC3 [Butorphanol] | 3 ± 2 | 58 ± 5 |  |  | 
2 | C=C1C[C@H](C)[C@H]2[C@H]3Cc4ccc(O)cc4[C@@]2(CCN3CC2CCC2)C1 [Xorphanol] |  |  | 29 ± 2 ⊕⊕^## % | 3.4 ± 1.7 | 
3 | C[C@H]1[C@H]2Cc3ccc(O)cc3[C@]1(C)CCN2CC1CC1 [Cyclazocine] | 21 ± 8 | 37 ± 2 |  |  | 0.22 ± 0.02
4 | C[C@@]12CCCCC[C@@H](Cc3ccc(O)cc31)[C@@H]2N [Dezocine] | 1.3 ± 0.6 | 43 ± 2 |  |  | 
5 | C[C@H]1[C@H]2Cc3ccc(O)cc3[C@]1(C)CCN2C [Metazocine] | 2 ± 0.1 | 41 ± 4 |  |  | 
6 | C[C@@H](NC(=O)[C@@H](N)Cc1ccc(O)cc1)C(=O)NCC(=O)N(C)[C@@H](Cc1ccccc1)C(=O)NCCO [DAMGO] |  |  | 58 ± 5% |  | 
7 | C=CCN1CC[C@]23c4c5ccc(O)c4O[C@H]2[C@@H](O)C=C[C@H]3[C@H]1C5 [Nalorphine] | 2.7 ± 1.4 | 50 ± 2 |  |  | 
